“And” between values parts separate entries of the source, which are not always exact repeats. Equal values may be shown once.
Test system: HIV transcripts (TAR, LLTR, Pol, PolyA, TatRev)
Assay: Cell-associated HIV transcripts (RT-ddPCR) 6 days after anti-CD3/CD28 activation of PBMCs from ART-suppressed PWH
Format: cell-based
Settings: for LLTR/TAR / PolyA/LLTR / TatRev/PolyA: DMSO+CD3/28 = 1, Fig 4B, C and D; for Pol / PolyA / TAR / TatRev: DMSO αCD3/28 = 100, Fig 4A
Description: Next, we evaluated the ability of the candidate LPAs to sustain the inhibitory effects during a prolonged ex vivo culture. To this end, PBMCs were cultured in the presence of individual drugs in DMSO or in DMSO alone as control, activated (anti-CD3/CD28), and harvested after 6 days. […] However, we decided to test the drug on day 6 because extra cells were available from some study participants.
Each drug was tested in PBMCs from at least 6 ART-suppressed study participants (except for KRIBB11, n = 5). PBMCs were aliquoted into wells at 6 × 10^6 cells/well. After activation, the cells were cultured with antiretrovirals in the presence of individual drugs in DMSO or DMSO alone as control. All conditions were tested in the presence of CD3/28 T cell–activating beads, except for the unactivated DMSO condition. After 6 days, total cellular RNA was extracted, and the progression through different stages of HIV transcription was quantified by measuring the levels of initiated (TAR), 5′ elongated (LLTR), midtranscribed/unspliced (Pol), completed (PolyA), and multiply spliced (TatRev) HIV transcripts. (A) The levels of all HIV transcripts were normalized to 1 μg of total cellular RNA and expressed as a percentage of the activated DMSO control (% of activated DMSO). Medians are shown as well as the individual values per study participant in different colors. (B–D) The effect of each drug on HIV transcriptional progression after activation was analyzed by the ratio of one HIV transcript to another. Ratios are independent of HIV infection frequency or normalization to cell numbers. Shown are the proportion of (B) all HIV transcripts that are elongated (LLTR/TAR), (C) elongated HIV transcripts that are completed (PolyA/LLTR), and (D) completed transcripts that are multiply spliced (TatRev/PolyA). Medians and IQR are presented, along with the individual values per study participant in different colors. P values were calculated using Wilcoxon’s signed-rank test: *P < 0.05.
PBMCs were isolated from fresh venous blood from 16 ART-suppressed HIV-infected study participants using Ficoll density gradient centrifugation. The cells were seeded at 6 × 10^6 cells/well and cultured with antiretrovirals (nevirapine and indinavir) to prevent new infection. On the next day, PBMCs were activated with anti-CD3/CD28–coated beads (Invitrogen) in the presence of 20 U/mL IL-2 and individual drugs in DMSO or DMSO alone as a control. Since we were limited in the PBMC yield per study participant, different study participants were used for different experiments (such as the initial screen, dose response, different time points, and studies in activated vs. unstimulated cells). In addition, the yields of PBMCs were sometimes insufficient to test all drugs for a given question or experiment.
For quantification of cell-associated HIV transcripts, PBMCs were harvested either after 24 hours or after 6 days. The cell viabilities were measured by trypan blue staining; then the cells were pelleted by centrifuging at 300g for 6 minutes and stored at –80°C. For quantification of virion-associated HIV RNA, cell culture supernatant was collected from 6 × 10^6 PBMCs that were treated and activated for 6 days as described above. Residual cells and cellular debris were subsequently removed from the supernatant by differential centrifugation (300g for 6 minutes, then 20,000g for 10 minutes), and the supernatant was stored at –80°C.
Total cellular DNA and RNA were extracted in parallel using Trireagent (Molecular Research Center) according to the manufacturer’s instructions, except for study participants 2147 and 2461 (Figure 4), for whom DNA and RNA were extracted using the QIAGEN AllPrep DNA/RNA/miRNA Universal Kit with on-column DNase I treatment of the RNA and the manufacturer’s modification to enhance recovery of short transcripts.

## N#CC[C@H](C1CCCC1)n1cc(-c2ncnc3[nH]ccc23)cn1 [ruxolitinib]
Participant 150b
  LLTR/TAR: 0.6749
  PolyA/LLTR: 0.4135
  TatRev/PolyA: 0.45
Participant 2027
  LLTR/TAR: 0.1463
  PolyA/LLTR: 0.4929
  TatRev/PolyA: 0
Participant 2147a
  LLTR/TAR: 0.473
  PolyA/LLTR: 0.2896
  TatRev/PolyA: 0
Participant 2161
  LLTR/TAR: 2.396
  PolyA/LLTR: 0.46
  TatRev/PolyA: 0
Participant 2461
  LLTR/TAR: 3.402
  PolyA/LLTR: 0
Participant 2747
  LLTR/TAR: 0.4032
  PolyA/LLTR: 1.05
  TatRev/PolyA: 0
Participant 2750
  LLTR/TAR: 1.117
  PolyA/LLTR: 1.35
  TatRev/PolyA: 1.555

## C=CCNC1=C2C[C@@H](C)C[C@H](OC)[C@H](O)[C@@H](C)/C=C(\C)[C@H](OC(N)=O)[C@@H](OC)/C=C\C=C(/C)C(=O)NC(=CC1=O)C2=O [tanespimycin]
Participant 150b
  LLTR/TAR: 1.555
  PolyA/LLTR: 0.0721
  TatRev/PolyA: 1.52
Participant 1379
  LLTR/TAR: 1.931
  PolyA/LLTR: 0
Participant 1713
  LLTR/TAR: 0.63
  PolyA/LLTR: 0.35
Participant 2147b
  LLTR/TAR: 1.469
  PolyA/LLTR: 0
Participant 2256
  LLTR/TAR: 1.634
  PolyA/LLTR: 0.2174
  TatRev/PolyA: 3.43
Participant 2750
  LLTR/TAR: 1.458
  PolyA/LLTR: 1.811
  TatRev/PolyA: 0
Participant 5557
  LLTR/TAR: 1.09
  PolyA/LLTR: 0.1459
  TatRev/PolyA: 0

## CC(C)[C@]12O[C@H]1[C@@H]1O[C@]13[C@]1(O[C@H]1C[C@H]1C4=C(CC[C@@]13C)C(=O)OC4)[C@@H]2O [triptolide]
Participant 150b
  LLTR/TAR: 0.3514
Participant 2147b
  LLTR/TAR: 1.135
Participant 2750
  LLTR/TAR: 14.8232

## mithramycin A
Participant 150b
  LLTR/TAR: 3.173
  PolyA/LLTR: 0.3062
  TatRev/PolyA: 1.15
Participant 1379
  LLTR/TAR: 7.408
  PolyA/LLTR: 0.07562
  TatRev/PolyA: 0
Participant 1713
  LLTR/TAR: 1.88
  PolyA/LLTR: 1.25
  TatRev/PolyA: 0
Participant 2147b
  LLTR/TAR: 0.4766
  PolyA/LLTR: 0.7007
  TatRev/PolyA: 0
Participant 2256
  LLTR/TAR: 1.969
  PolyA/LLTR: 0
Participant 2750
  LLTR/TAR: 4.292
  PolyA/LLTR: 1.638
  TatRev/PolyA: 0.3964
Participant 5557
  LLTR/TAR: 0.2056
  PolyA/LLTR: 46.0561
  TatRev/PolyA: 3.456

## pladienolide B
10nM, 6 days after αCD3/28 activation, each column one participant
  LLTR HIV transcripts (DMSO αCD3/28 = 100): 48.15 and 112.06 and 64.44 and 97.37 and 80.45 and 82.86
Participant 2027
  Pol: 56.14
  PolyA: 45.13
  TAR: 270.3
  TatRev: 0
  LLTR/TAR: 0.3065
  PolyA/LLTR: 0.5447
  TatRev/PolyA: 0
Participant 2147a
  Pol: 74.51
  PolyA: 38.34
  TAR: 177.4
  TatRev: 22.95
  LLTR/TAR: 0.2714
  PolyA/LLTR: 0.7963
  TatRev/PolyA: 0.342
Participant 2161
  Pol: 44.19
  PolyA: 152.38
  TAR: 52.78
  TatRev: 381.82
  LLTR/TAR: 1.5241
  PolyA/LLTR: 1.89
  TatRev/PolyA: 2.506
Participant 2461
  PolyA: 53.85
  TAR: 91.45
  LLTR/TAR: 1.065
  PolyA/LLTR: 0.553
Participant 2747
  Pol: 21.03
  PolyA: 65.33
  TAR: 95.91
  TatRev: 0
  TatRev/PolyA: 0
Participant 2750
  Pol: 212.24
  PolyA: 74.85
  TAR: 108.21
  TatRev: 155
  LLTR/TAR: 1.036
  PolyA/LLTR: 0.668
  TatRev/PolyA: 2.0707

Source: publication PMC11466185, “Mechanisms and efficacy of small molecule latency-promoting agents to inhibit HIV reactivation ex vivo” (JCI Insight, 2024)
